Counter-ions that a name gives are not always drawn.
Molecular target: Autotaxin (Homo sapiens (Human), UniProt Q13822)
Test: Autotaxin LPC Cascade Assay
Type: biochemical
Settings: Autotaxin 5 nM, LPC 100 μM, choline oxidase/HRP/Ampliflu Red fluorescence read-out, 2% DMSO, RT; read-out: IC50 ATX Activity
How it was run: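 Choline liberated from LPC by autotaxin during 1 h, after a 10-min RT compound preincubation, was converted through choline oxidase/HRP to a fluorescent Ampliflu Red product.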

Structure (SMILES) | IC50 [nM]
CC(C)[C@@H](NC(=O)c1cc(C(F)(F)F)ccc1F)C(=O)N1CCC2(CC1)C(=O)N(C)CN2c1ccc(OCCN(C)C)cc1 [Example 171, (R)—N-(1-(1-(4-(2-(Dimethylamino)ethoxy)phenyl)-3-methyl-4-oxo-1,3,8-triazaspiro[4.5]decan-8-yl)-3-methyl-1-oxobutan-2-yl)-2-fluoro-5-(trifluoromethyl)benzamide trifluoroacetic Acid Salt] | < 500
CC(C)[C@@H](NC(=O)c1cc(C(F)(F)F)ccc1F)C(=O)N1CCC2(CC1)C(=O)N(C)C(=O)N2c1cnn(C)c1 [Example 17, (R)-2-Fluoro-N-(3-methyl-1-(3-methyl-1-(1-methyl-1H-pyrazol-4-yl)-2,4-dioxo-1,3,8-triazaspiro[4.5]decan-8-yl)-1-oxobutan-2-yl)-5-(trifluoromethyl)benzamide] | ≥ 1000
CN1C(=O)N(c2ccc3[nH]ncc3c2)C2(CCN(C(=O)[C@H](NC(=O)c3cc(C(F)(F)F)ccc3F)C3CCCC3)CC2)C1=O [Example 57, (R)—N-(2-(1-(1H-Indazol-5-yl)-3-methyl-2,4-dioxo-1,3,8-triazaspiro[4.5]decan-8-yl)-1-cyclopentyl-2-oxoethyl)-2-fluoro-5-(trifluoromethyl)benzamide] | < 500
[2H]c1ccc(N2C(=O)N(C)C(=O)C23CCN(C(=O)[C@H](NC(=O)c2cc(C(F)(F)F)ccc2F)C(C)C)CC3)cc1 [Example 190] | < 500
Cc1cccc(C(=O)N[C@@H](C(=O)N2CCC3(CC2)C(=O)N(C)CN3c2ccc(C(N)=O)cc2)C(C)C)c1F [Example 145, (R)—N-(1-(1-(4-Carbamoylphenyl)-3-methyl-4-oxo-1,3,8-triazaspiro[4.5]decan-8-yl)-3-methyl-1-oxobutan-2-yl)-2-fluoro-3-methylbenzamide] | 500 to 1000
Cc1cccc(C(=O)N[C@@H](C(=O)N2CCC3(CC2)COC(=O)N3c2ccccc2)C(C)C)c1 [Example 217, (R)-3-Methyl-N-(3-methyl-1-oxo-1-(2-oxo-1-phenyl-3-oxa-1,8-diazaspiro[4.5]decan-8-yl)butan-2-yl)benzamide] | ≥ 1000
CC(C)[C@@H](NC(=O)c1cc(C(F)(F)F)ccc1F)C(=O)N1CCC2(CC1)C(=O)N(C)C(=O)N2Cc1cccc(Cl)c1 [Example 104, (R)—N-(1-(1-(3-Chlorobenzyl)-3-methyl-2,4-dioxo-1,3,8-triazaspiro[4.5]decan-8-yl)-3-methyl-1-oxobutan-2-yl)-2-fluoro-5-(trifluoromethyl)benzamide] | < 500
CC(C)[C@@H](NC(=O)c1cc(C(F)(F)F)ccc1F)C(=O)N1CCC2(CC1)C(=O)N(C)C(=O)N2c1ccc2c(c1)OCCN2 [Example 21, (R)—N-(1-(1-(3,4-Dihydro-2H-benzo[b][1,4]oxazin-7-yl)-3-methyl-2,4-dioxo-1,3,8-triazaspiro[4.5]decan-8-yl)-3-methyl-1-oxobutan-2-yl)-2-fluoro-5-(trifluoromethyl)benzamide] | < 500
CC(C)[C@@H](NC(=O)c1cc(C(F)(F)F)ccc1F)C(=O)N1CCC2(CC1)C(=O)N(C)C(=O)N2c1ccc(Cl)cc1 [Example 181, (R)—N-(1-(1-(4-Chlorophenyl)-3-methyl-2,4-dioxo-1,3,8-triazaspiro[4.5]decan-8-yl)-3-methyl-1-oxobutan-2-yl)-2-fluoro-5-(trifluoromethyl)benzamide] | < 500
COc1ccc(F)c(C(=O)N[C@@H](C(=O)N2CCC3(CC2)C(=O)N(C)CN3c2ccc(C(=O)O)cc2)C(C)C)c1 [Example 163, (R)-4-(8-(2-(2-Fluoro-5-methoxybenzamido)-3-methylbutanoyl)-3-methyl-4-oxo-1,3,8-triazaspiro[4.5]decan-1-yl)benzoic Acid] | < 500
CC(C)[C@@H](NC(=O)c1cc(C(F)(F)F)ccc1F)C(=O)N1CCC2(CC1)C(=O)N(C)[C@H](C)N2c1ccc(C(=O)O)cc1 [Example 212, 4-((R)-8-((R)-2-(2-Fluoro-5-(trifluoromethyl)benzamido)-3-methylbutanoyl)-2,3-dimethyl-4-oxo-1,3,8-triazaspiro[4.5]decan-1-yl)benzoic Acid] | < 500
Cc1cccc(C(=O)N[C@@H](C(=O)N2CCC3(CC2)C(=O)N(C)CN3c2ccccc2Cl)C(C)C)c1 [Example 196, (R)—N-(1-(1-(2-Chlorophenyl)-3-methyl-4-oxo-1,3,8-triazaspiro[4.5]decan-8-yl)-3-methyl-1-oxobutan-2-yl)-3-methylbenzamide] | < 500
CC(C)[C@@H](NC(=O)c1cccnc1)C(=O)N1CCC2(CC1)C(=O)N(C)C(=O)N2c1ccc2[nH]ncc2c1 [Example 229, (R)—N-(1-(1-(1H-Indazol-5-yl)-3-methyl-2,4-dioxo-1,3,8-triazaspiro[4.5]decan-8-yl)-3-methyl-1-oxobutan-2-yl)nicotinamide] | ≥ 1000
Cc1nc2cc(CN3C(=O)N(C)C(=O)C34CCN(C(=O)[C@H](NC(=O)c3cc(C(F)(F)F)ccc3F)C(C)C)CC4)ccn2n1 [Example 114, (R)-2-Fluoro-N-(3-methyl-1-(3-methyl-1-((2-methyl-[1,2,4]triazolo[1,5-a]pyridin-7-yl)methyl)-2,4-dioxo-1,3,8-triazaspiro[4.5]decan-8-yl)-1-oxobutan-2-yl)-5-(trifluoromethyl)benzamide] | ≥ 1000
CCc1ccc(F)c(C(=O)N[C@@H](C(=O)N2CCC3(CC2)C(=O)N(C)C(=O)N3c2ccc(OC)cc2)C(C)C)c1 [Example 50, (R)-5-Ethyl-2-fluoro-N-(1-(1-(4-methoxyphenyl)-3-methyl-2,4-dioxo-1,3,8-triazaspiro[4.5]decan-8-yl)-3-methyl-1-oxobutan-2-yl)benzamide] | < 500
CC(C)[C@@H](NC(=O)c1cc(C(F)(F)F)ccc1F)C(=O)N1CCC2(CC1)C(=O)N(C)C(=O)N2c1cnc2[nH]ccc2c1 [Example 20, (R)-2-Fluoro-N-(3-methyl-1-(3-methyl-2,4-dioxo-1-(1H-pyrrolo[2,3-b]pyridin-5-yl)-1,3,8-triazaspiro[4.5]decan-8-yl)-1-oxobutan-2-yl)-5-(trifluoromethyl)benzamide] | < 500
CCc1cccc(C(=O)N[C@@H](C(=O)N2CCC3(CC2)C(=O)N(C)C(=O)N3c2ccccc2)C(C)C)c1 [Example 46, (R)-3-Ethyl-N-(3-methyl-1-(3-methyl-2,4-dioxo-1-phenyl-1,3,8-triazaspiro[4.5]decan-8-yl)-1-oxobutan-2-yl)benzamide] | 500 to 1000
Cc1cc(CN2C(=O)N(C)C(=O)C23CCN(C(=O)[C@H](NC(=O)c2cc(C(F)(F)F)ccc2F)C(C)C)CC3)ccn1 [Example 95, (R)-2-Fluoro-N-(3-methyl-1-(3-methyl-1-((2-methylpyridin-4-yl)methyl)-2,4-dioxo-1,3,8-triazaspiro[4.5]decan-8-yl)-1-oxobutan-2-yl)-5-(trifluoromethyl)benzamide] | 500 to 1000
Cc1cccc(C(=O)N[C@@H](C(=O)N2CCC3(CC2)C(=O)N(C)CN3c2cccnc2)C(C)C)c1 [Example 195, (R)-3-Methyl-N-(3-methyl-1-(3-methyl-4-oxo-1-(pyridin-3-yl)-1,3,8-triazaspiro[4.5]decan-8-yl)-1-oxobutan-2-yl)benzamide] | ≥ 1000
CC(C)[C@@H](NC(=O)c1cc(C(F)(F)F)ccc1F)C(=O)N1CCC2(CC1)C(=O)N(C)C(=O)N2c1ccc2oc(=O)[nH]c2c1 [Example 29, (R)-2-Fluoro-N-(3-methyl-1-(3-methyl-2,4-dioxo-1-(2-oxo-2,3-dihydrobenzo[d]oxazol-5-yl)-1,3,8-triazaspiro[4.5]decan-8-yl)-1-oxobutan-2-yl)-5-(trifluoromethyl)benzamide] | 500 to 1000
CC(C)[C@@H](NC(=O)c1cc(OC(F)F)ccc1F)C(=O)N1CCC2(CC1)C(=O)N(C)C(=O)N2c1ccc2[nH]ncc2c1 [Example 64, (R)—N-(1-(1-(1H-Indazol-5-yl)-3-methyl-2,4-dioxo-1,3,8-triazaspiro[4.5]decan-8-yl)-3-methyl-1-oxobutan-2-yl)-5-(difluoromethoxy)-2-fluorobenzamide] | < 500
CC(C)[C@@H](NC(=O)c1cc(Cl)ccc1F)C(=O)N1CCC2(CC1)C(=O)N(C)C(=O)N2c1ccccc1 [Example 43, (R)-5-Chloro-2-fluoro-N-(3-methyl-1-(3-methyl-2,4-dioxo-1-phenyl-1,3,8-triazaspiro[4.5]decan-8-yl)-1-oxobutan-2-yl)benzamide] | < 500
CC(C)[C@@H](NC(=O)c1cc(C(F)(F)F)ccc1F)C(=O)N1CCC2(CC1)C(=O)N(C)C(=O)N2C1CCCCC1 [Example 242, (R)—N-(1-(1-Cyclohexyl-3-methyl-2,4-dioxo-1,3,8-triazaspiro[4.5]decan-8-yl)-3-methyl-1-oxobutan-2-yl)-2-fluoro-5-(trifluoromethyl)benzamide] | < 500
CC(C)[C@@H](NC(=O)c1cc(C(F)(F)F)ccc1F)C(=O)N1CCC2(CC1)C(=O)N(C)C(=O)N2c1ccc2[nH]c(=O)oc2c1 [Example 28, (R)-2-Fluoro-N-(3-methyl-1-(3-methyl-2,4-dioxo-1-(2-oxo-2,3-dihydrobenzo[d]oxazol-6-yl)-1,3,8-triazaspiro[4.5]decan-8-yl)-1-oxobutan-2-yl)-5-(trifluoromethyl)benzamide] | < 500
CC(C)[C@H](NC(=O)c1cc(C(F)(F)F)ccc1F)C(=O)N1CCC2(CC1)C(=O)N(C)C(=O)N2c1ccc2[nH]ncc2c1 [Example 69, (S)—N-(1-(1-(1H-Indazol-5-yl)-3-methyl-2,4-dioxo-1,3,8-triazaspiro[4.5]decan-8-yl)-3-methyl-1-oxobutan-2-yl)-2-fluoro-5-(trifluoromethyl)benzamide] | ≥ 1000
Cc1cccc(C(=O)N[C@@H](C(=O)N2CCC3(CC2)C(=O)N(CCCS(C)(=O)=O)CN3c2ccccc2)C(C)C)c1F [Example 177, (R)-2-Fluoro-3-methyl-N-(3-methyl-1-(3-(3-(methylsulfonyl)propyl)-4-oxo-1-phenyl-1,3,8-triazaspiro[4.5]decan-8-yl)-1-oxobutan-2-yl)benzamide] | < 500

From patent US10233182B2, “Substituted spirocyclic inhibitors of autotaxin” (X-Rx, Inc., priority 2014, dated 2019)
